Measured values: PMC4568483, “A spheroid toxicity assay using magnetic 3D bioprinting and real-time mobile device-based imaging” (Scientific Reports, 2015)
Where two headings read alike, the source gives them in different places.

Tests used:
3T3 spheroids [1] = experiment: Spheroid toxicity assay (contraction of magnetically 3D bioprinted spheroids, mobile device imaging); type: cell-based, murine
Protocol: The spheroid toxicity assay was designed to rapidly assess toxicity in M3DB spheroids (Fig. 1A)[26]. At 70–80% confluence, 3T3s grown in 2D were statically incubated overnight with magnetic nanoparticles, allowing for nanoparticle association with the cells (NanoShuttle, Nano3D Biosciences, Houston, TX) at a concentration of 1 μL/1 × 10^4 cells (50 pg/cell)[18][25]. Cells were magnetized by the electrostatic and non-specific attachment of nanoparticles to the cell membrane via poly-L-lysine. Once attached onto the membrane, the nanoparticles remain for 7–8 d before releasing into the ECM[18]. If internalized, the nanoparticles will exit the cell still attached to the membrane.
After magnetization, the cells were enzymatically detached with trypsin, resuspended in media, then distributed into ultra-low attachment 6-well plates (Corning, Tewksbury, MA) at a concentration of 3.2 × 10^6 cells in 2 mL (1.6 × 10^6 cells/mL). A magnetic drive of 6 neodymium magnets (Nano3D Biosciences) was placed atop the well plate to levitate the cells in 3D (500 G, 30 pN, see Supplemental Fig. S12). The purpose of this levitation step was to induce ECM formation, as was shown previously with primary human pulmonary fibroblasts and tracheal smooth muscle cells that extruded laminin after 1 h of levitation. […] After 1 h of levitation, the levitated cultures were broken up and resuspended in media using pipette action to yield a suspension of magnetized cells and ECM, which was distributed into an ultra-low attachment 96-well plate (Corning) at a concentration of 7.5 × 10^4 cells/well (n = 3 per compound concentration). Immediately afterwards, the plate was placed atop a magnetic drive of 96 neodymium magnets (0.0625” OD, Nano3D Biosciences) to attract the cells (120 G, 10 pN, see Supplemental Fig. S12) and ECM to the bottom of the well to form a spheroid. These spheroids were printed on the magnets for 15 min. At this point, the cells within the spheroids were connected but loose, and their competency could be empirically assessed by their ability to stay together when the magnet was removed. Towards the end of the printing time, compounds were added to the wells achieve their final concentrations. The plate was then removed from the magnet and the spheroids were allowed to contract.
M3DB spheroids and their contraction were imaged using a mobile device-based imaging system (Fig. 1B)[26]. After printing, the plate of spheroids were placed atop an acrylic imaging apparatus with a mobile device (iPod touch 5th generation, 16 GB, Apple Computer, Cupertino, CA) below the plate facing upwards, and a light source (LightPad A920, Artograph, Delano, MN) above the plate to illuminate the images. The mobile device was programmed using an application (Experimental Assistant, Nano3D Biosciences) to image the plate every 4 min for a period of 10 h. When the spheroids had finished contracting, the images were transferred to a computer where they were analyzed using a custom image analysis code written in Python that processed thousands of images in hours. The area of the spheroid was measured over time, as well as the rate of contraction for the first 150 min using a linear least-squares fit (OriginPro, OriginLab, Northampton, MA). The rates of contraction served as the endpoint for the assay, and were plotted against compound concentration and fit to a Boltzmann sigmoidal function (OriginPro) from which the IC50’s were determined.

3T3s in 2D = experiment: MTT assay on 2D monolayers, viability after 72 h; type: cell-based, murine; details: for MTT IC50 / IC50: 2D, viability at 72 h; for Effect on viability in 2D: MTT
Protocol: The MTT assay was performed to compare its endpoint, viability of 3T3s in 2D after 72 h, with spheroid contraction. 3T3s were seeded on 96-well plates (n = 3 per compound concentration) at a concentration of 2.5 × 10^4 cells/well to adhere overnight. The following day, compounds were added to each well at the desired concentration. After 72 hours of incubation, the media was replaced with 10% MTT (Sigma-Aldrich) in media. The cells were incubated with the reagent for at least 4 hours at 37 °C. Following incubation, the media was aspirated and the remaining formazan was dissolved in acidified isopropanol (0.1 N HCl). The absorbance of the solution was then read at 570 nm in a spectrophotometer (SpectraMax Plus 384, Molecular Devices, Sunnyvale, CA) with background subtraction at 690 nm. Dose-response curves were plotted and fit to a Boltzmann sigmoidal function (OriginPro) similarly to the spheroid toxicity assay.

3T3s = details: 2D, read-out: Literature IC50, cited from earlier work
3T3 spheroids [2] = experiment: Gene expression profiling (mRNA sequencing) of spheroids with and without ATRA; details: 41.6 μM ATRA
3T3 spheroids [3] = experiment: MTT assay on 3T3 spheroids; type: cell-based, murine; details: 3D spheroids
Source text: Figure S7: Dose response curves of 3T3 spheroids exposed to ATRA, SDS, and penicillin-G as measured by the MTT assay.

[4] = Mus musculus, 2.5 h, 3D, endpoint rate of contraction over 150 min
[5] = 3D, endpoint rate of contraction over 150 min
[6] = ref NIEHS Registry of Cytotoxicity [35]

C[C@@H]1C[C@H]2[C@@H]3CCC4=CC(=O)C=C[C@]4(C)[C@@]3(F)[C@@H](O)C[C@]2(C)[C@@]1(O)C(=O)CO [Dexamethasone, dexamethasone]
IC50 (3T3 spheroids [1]; [4]): 84.6 µM | MTT IC50 (3T3s in 2D): n.s. | Effect on viability in 2D (3T3s in 2D; 72 h): no significant effect | IC50 (3T3s; ref Nakada et al., 1987 [45]): 0.00277 µM

O=c1[nH]cc(F)c(=O)[nH]1 [5′-fluorouracil]
IC50 (3T3 spheroids [1]; [5]): 253 µM | MTT IC50 (3T3s in 2D): n.s. | Effect on viability in 2D (3T3s in 2D; 72 h): no significant effect | IC50 (3T3s; [6]): 2.6 µM

CC1=C(/C=C/C(C)=C/C=C/C(C)=C/C(=O)O)C(C)(C)CCC1 [ATRA, all-trans retinoic acid]
Concentration at and above which spheroid contraction was affected (3T3 spheroids [1]): ≥ 41.6 µM | IC50 (3T3 spheroids [1]; [4]): 82.8 µM | Expression of genes for apoptotic inhibitors (BCL2, BIRC2, BIRC3) (3T3 spheroids [2]): downregulation | Expression of the gene for p53 (3T3 spheroids [2]): upregulation | Number of genes downregulated as a function of exposure (3T3 spheroids [2]): 40 genes | Number of genes expressed differently between exposed and unexposed spheroids (3T3 spheroids [2]; 72 h exposure, 364 genes profiled): 99 genes | Fate of 3T3s in 2D on exposure (3T3s in 2D; 2D culture, 41.6 μM ATRA, 72 h): lysed before 72 h | IC50 (3T3s in 2D; Mus musculus): 24.7 µM | IC50 (3T3s; ref Seiler et al., 2011 [16]): 20 µM | Dose response of spheroid viability by MTT (3T3 spheroids [3]): significant dose-dependent response

COc1cccc2c1C(=O)c1c(O)c3c(c(O)c1C2=O)C[C@@](O)(C(=O)CO)C[C@@H]3O[C@H]1C[C@H](N)[C@H](O)[C@H](C)O1 [Doxorubicin, doxorubicin]
IC50 (3T3 spheroids [1]; [4]): 46.7 µM | IC50 (3T3s in 2D; Mus musculus): 12.7 µM | IC50 (3T3s; [6]): 0.33 µM

C=C[C@@]1(C)CC(=O)[C@]2(O)[C@@]3(C)[C@@H](O)CCC(C)(C)[C@@H]3[C@H](O)[C@H](OC(C)=O)[C@@]2(C)O1 [Forskolin, forskolin]
IC50 (3T3 spheroids [1]; [4]): 4.7 µM | IC50 (3T3s in 2D; Mus musculus): 0.6 µM | IC50 (3T3s; ref Varrault et al., 1992 [46]): 26 µM

CC1(C)S[C@@H]2[C@H](NC(=O)Cc3ccccc3)C(=O)N2[C@H]1C(=O)O [Penicillin-G, penicillin-G]
Spheroid Assay IC50 (3T3 spheroids [1]; [5]): n.s. | Effect on spheroid contraction (3T3 spheroids [1]; rate of contraction over first 150 min): no effect on spheroid contraction | IC50 (3T3s in 2D; Mus musculus): 1770 µM | IC50 (3T3s; [6]): 5730 µM | Dose response of spheroid viability by MTT (3T3 spheroids [3]): significant dose-dependent response

CCCCCCCCCCCCOS(=O)(=O)[O-].[Na+] [SDS, sodium dodecyl sulfate]
IC50 (3T3 spheroids [1]; [5]): 282 µM | IC50 (3T3s in 2D): 167 µM | IC50 (3T3s; [6]): 270 µM | Dose response of spheroid viability by MTT (3T3 spheroids [3]): significant dose-dependent response
